ChEMBL document CHEMBL1148414, “Conformer- and alignment-independent model for predicting structurally diverse competitive CYP2C9 inhibitors” (J Med Chem, 2004)

Target: Cytochrome P450 2C9 (Homo sapiens, UniProt P11712)
Experiment: Binding affinity towards cytochrome P450 2C9
Type: ADME

Cytochrome P450 2C9, sequence (P11712 whole entry): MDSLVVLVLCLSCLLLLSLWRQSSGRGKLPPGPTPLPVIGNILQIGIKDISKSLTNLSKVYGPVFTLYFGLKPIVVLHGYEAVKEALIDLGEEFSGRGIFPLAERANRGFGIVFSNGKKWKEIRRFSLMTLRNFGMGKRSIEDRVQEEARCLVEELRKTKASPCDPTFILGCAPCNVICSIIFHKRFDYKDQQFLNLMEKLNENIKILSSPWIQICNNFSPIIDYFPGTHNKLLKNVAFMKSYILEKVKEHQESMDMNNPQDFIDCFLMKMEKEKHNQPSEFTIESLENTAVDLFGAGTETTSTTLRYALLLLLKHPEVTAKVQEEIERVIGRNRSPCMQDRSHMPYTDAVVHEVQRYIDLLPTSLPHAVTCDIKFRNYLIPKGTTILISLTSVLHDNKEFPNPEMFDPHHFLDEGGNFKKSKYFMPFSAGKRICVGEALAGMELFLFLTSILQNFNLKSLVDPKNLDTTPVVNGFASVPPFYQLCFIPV

SMILES | Ki
Clc1ccc(CO[C@@H](Cn2ccnc2)c2ccc(Cl)cc2Cl)c(Cl)c1 [(R)-MICONAZOLE] | 6 µM
Nc1c(Oc2ccc(Cl)cc2Cl)ccc(Cl)c1S(=O)(=O)O | 20 µM
COC(=O)c1ccc2[nH]c([S@@+]([O-])Cc3nccc(OC)c3OC)nc2c1 | 64 µM
CCCCC1C(=O)N(c2ccccc2)N(c2ccccc2)C1=O [PHENYLBUTAZONE] | 19 µM
Cc1nn(C)c(C)c1NC(=O)c1ccccc1NS(=O)(=O)c1cc(Cl)sc1Cl | 17 µM
COc1ccnc(C[S@@+]([O-])c2nc3cc(OC(F)F)ccc3[nH]2)c1OC | 145 µM
CO[C@]1(C)C[C@H](c2ccccc2)C2C(=O)Oc3ccccc3C2O1 (some centres undefined) | 16 µM
c1ccc2[nH]c(-c3cscn3)nc2c1 [THIABENDAZOLE] | 245 µM
COC(=O)c1ccc2nc([S@+]([O-])Cc3nccc(OC)c3OC)[nH]c2c1 | 140 µM
COc1ccc2nc(S(=O)(=O)Cc3ncc(C)c(OC)c3C)[nH]c2c1 [OMEPRAZOLE SULFONE] | 35 µM
COCCCC/C(=N\OCCN)c1ccc(C(F)(F)F)cc1 [FLUVOXAMINE] | 8.5 µM
CC(=O)C[C@H](c1ccccc1)C1C(=O)Oc2ccccc2C1O (some centres undefined) | 13.6 µM
Clc1ccc(CO[C@H](Cn2ccnc2)c2ccc(Cl)cc2Cl)c(Cl)c1 | 6 µM
CO[C@@]1(C)C[C@H](c2ccccc2)c2c(c3ccccc3oc2=O)O1 | 16 µM
COc1ccnc(C[S@+]([O-])c2nc3cc(OC(F)F)ccc3[nH]2)c1OC | 64 µM
COCCCOc1ccnc(C[S@+]([O-])c2nc3ccccc3[nH]2)c1C | 37 µM
[O-][S@@+](Cc1cc(OCC2CC2)ccn1)c1nc2ccc(F)cc2[nH]1 | 60 µM
COc1ccc2[nH]c([S+]([O-])Cc3ncc(C)c(OC)c3C)nc2c1 (centres undefined) [OMEPRAZOLE] | 45 µM
COc1cc(C(=O)NS(=O)(=O)c2ccccc2C)ccc1Cc1cn(C)c2ccc(NC(=O)OC3CCCC3)cc12 [ZAFIRLUKAST] | 2.5 µM
COCCCOc1ccnc(C[S@@+]([O-])c2nc3ccccc3[nH]2)c1C [DEXRABEPRAZOLE] | 36 µM
O=C1NC(=O)C2(N1)c1ccccc1-c1ccccc12 | 125 µM
O=c1c(O)c(-c2ccc(O)cc2)oc2cc(O)cc(O)c12 [KAEMPFEROL] | 6 µM
[O-][S@+](Cc1cc(OCC2CC2)ccn1)c1nc2cc(F)ccc2[nH]1 | 93 µM
CC(=O)[C@H]1CC[C@H]2[C@@H]3CCC4=CC(=O)CC[C@]4(C)[C@H]3CC[C@]12C [PROGESTERONE] | 5.5 µM
